{"source": "patent US7700352B2", "about": "“Composition for culturing mouse pluripotent stem cells” (Riken, priority 2002, dated 2010)", "key": {"[1]": {"system": "feeder cell-independent ES cells (E14tg2a, CGR8)", "assay": "Formation of colonies of undifferentiated ES cells in medium free of serum and feeder cells (GMEM + LIF + 2-ME + KSR), Leischman staining", "format": "cell-based, mouse", "conditions": "for relative potency of the colony-forming capability: comparison among candidate peptides / ACTH fragments; for capability to form a colony of undifferentiated cells: peptide at 1 μM in medium with LIF + 2-ME + KSR", "method": "One hundred of the feeder cell-independent ES cells (E14tg2a (Hooper, M. et al., Nature, 325, 292 (1987)), CGR8 (Mountford, P. et al., Proc. Natl. Acad. Sci. USA, 91, 4303 (1994)), and ES cells derived therefrom) were incubated on the gelatinated 12-well plate treated with a 0.1% (w/v) gelatin solution at 37° C. in 5% CO2 in one ml of a culture medium of Glasgow minimum essential medium (GMEM; Sigma) used as a cell culture minimum medium supplemented with (1) 1×10^3 U/ml LIF (ESGRO, Invitrogen), (3) 0.1 μM 2-mercaptoethanol (Nacalai Tesque), and (5) 10% (v/v) KSR (Invitrogen) per well.\nFive days or more after the incubation, the supernatant was removed by aspiration, and then a Leischman staining liquid (1.5 g Leischman Staining: Sigma/L methanol) was added to the plate until the liquid covered all of the surface of the plate. The plate was left at room temperature for 10 minutes, and rinsed with water (Leischman staining). For the blue-stained colonies, no formation of colonies that maintained their morphology in an undifferentiated state was shown by the naked eye and light microscopy (FIG. 1 (g)). When the ES cells were incubated in a culture medium wherein the medium described above was supplemented with 0.3% (v/v) FCS (2), an average of 17 colonies of undifferentiated cells was observed (FIG. 1 (d)). […] Further, a formation of colonies of undifferentiated cells was observed when the ES cells were incubated at 1000 or more per well in the culture medium having the same composition ((1)+(3)+(5)). When the conditioned medium (CM) was added to a culture medium at a final concentration of 10% (v/v), and 100 ES cells per well were incubated therein, then an average of 7 colonies of undifferentiated cells was observed (FIG. 1 (f)).\nSubsequently, a candidate peptide that had been selected from diverse known growth factors, cytokines, peptide hormones and the like, was added to the culture medium comprising (1)+(3)+(5), and the ES cells were incubated therein at 37° C. in 5% CO2 so that a capability of the candidate to form a colony of undifferentiated cells was determined. […] It should be noted that FIG. 1 (a) to (c) show the results obtained from the medium consisting of GMEM, LIF and 2-ME, supplemented with FCS+feeder cells, KSR+feeder cells, and FCS, respectively.\nIn a similar manner to the above, ACTH and the fragments thereof were added to the culture medium at a final concentration of 1 μM wherein (1) LIF, (3) 2-ME, and (5) KSR were supplemented to a cell culture minimum medium.\nACHT has been known to activate an ACTH receptor belonging to G-protein-coupled receptor families, which receptor activates an adenylate cyclase activity through the activation of trimeric G proteins containing the Gα s subunit. Now, to a cell culture minimum medium supplemented with (1) 1×10^3 U/ml LIF, (3) 0.1 μM 2-ME, (5) 10% (v/v) KSR, and (6) 10 μM ACTH, an inhibitor of an adenylate cyclase activity, SQ22536 (9-(tetrahydro-2-furanyl)adenine) (Sigma) at 100 μM, was further added, and the resultant medium was used to culture the ES cells in a similar manner to that of Example 1.\nIn order to check the effect of sole SQ22536, a cell culture minimum medium supplemented with (1) 1×10^3 U/ml LIF, (3) 0.1 μM 2-ME, (5) 10% (v/v) KSR, and (7) SQ22536 100 μM was used to culture the ES cells in a similar manner to that of Example 1. As a result, an average of nine colonies of undifferentiated cells was observed. Further, even when the medium added with another inhibitor of an adenylate cyclase activity, 2′,5′-dideoxyadenosine (Sigma) 500 μM, was used, an average of eight colonies of undifferentiated cells was observed. […]"}, "[2]": {"system": "inner cell masses of C57BL/6 blastocysts", "assay": "Establishment of ES cell lines from inner cell masses of blastocysts in serum-free, feeder-free medium", "format": "cell-based, mouse", "conditions": "10 μM ACTH, LIF, 2-ME, KSR, fibronectin-coated plate; thirty C57BL/6 embryos", "method": "Thirty embryos at blastocyst stage of 3.5 days old were removed from C57BL/6 inbred mouse strains, and the inner cell masses isolated from the embryos by immunosurgery were individually incubated in the culture medium consisting of CCMM, (1) 1×10^3 U/ml LIF, (3) 0.1 μM 2-ME, 0.1 mM non-essential amino acids, 1 mM sodium pyruvate, (5) 10% (v/v) KSR, and (6) 10 μM ACTH on a plate coated with fibronectin."}, "[3]": {"system": "ES cells injected into the mouse blastocyst", "assay": "Chimeric mouse production from ES cells injected into the mouse blastocyst (retention of pluripotency)", "format": "in vivo", "conditions": "ES cells cultured with 1 nM adrenocorticotropic hormone", "method": "The undifferentiated ES cells derived from the colonies obtained by the culture with 1 nM adrenocorticotropic hormone in Example 1 as described above were further subcultured twice, and the resultant cells were injected into the mouse blastocyst to complete the transplantation into the pseudopregnant mouse uterus."}, "[4]": {"conditions": "SQ22536 100 μM added to medium with 10 μM ACTH, 7th day"}, "[5]": {"conditions": "10 μM ACTH (1-24), compared with 0.3% FCS or 10% CM"}, "[6]": {"conditions": "pertussis toxin 100 ng/ml added to medium with 10 μM ACTH"}}, "note": "No end group written: not given here."}
{"compound": "C[C@H]1O[C@@H](n2cnc3c(N)ncnc32)C[C@@H]1O", "note": "[2′,5′-dideoxyadenosine]", "values": [{"measurement": "average number of colonies of undifferentiated cells", "setting": "[1]; 2′,5′-dideoxyadenosine 500 μM in LIF + 2-ME + KSR medium", "value": "eight"}]}
{"compound": "Nc1ncnc2c1ncn2C1CCCO1", "note": "(stereo not drawn) [SQ22536, 9-(tetrahydro-2-furanyl)adenine]", "values": [{"measurement": "formation of colonies of undifferentiated cells", "setting": "[1]; [4]", "value": "no formation of colonies of undifferentiated cells was unexpectedly inhibited"}, {"measurement": "size of individual colonies", "setting": "[1]; [4]", "value": "significantly increased"}, {"measurement": "average number of colonies of undifferentiated cells", "setting": "[1]; SQ22536 100 μM alone (no ACTH) in LIF + 2-ME + KSR medium", "value": "nine"}]}
{"compound": "ACTH (1-24): fragment of ACTH, amino acids from the N-terminus 1 to 24", "values": [{"measurement": "cell proliferation rate", "setting": "[1]; [5]", "value": "equivalent to that in the case of 0.3% FCS or 10% CM"}, {"measurement": "formation rate of undifferentiated cell colonies", "setting": "[1]; [5]", "value": "equivalent to that in the case of 0.3% FCS or 10% CM"}, {"measurement": "relative potency of the colony-forming capability", "setting": "[1]", "value": "most potent capability among the fragments having a capability"}, {"measurement": "formation of the colony of undifferentiated cells", "setting": "[1]; final concentration of 0.1 μM", "value": "showed the formation of the colony of undifferentiated cells"}, {"measurement": "capability to form a colony of undifferentiated cells", "setting": "[1]", "value": "showed to have the capability"}]}
{"compound": "ACTH (11-24): fragment of ACTH, amino acids 11 to 24 (KPVGKKRRPVKVYP; Corticotropin; UniProt P01189 148-161, looked up, fragment)", "values": [{"measurement": "capability to form a colony of undifferentiated cells", "setting": "[1]", "value": "showed to have the capability"}]}
{"compound": "ACTH (18-39): fragment of ACTH, amino acids 18 to 39 (RPVKVYPNGAEDESAEAFPLEF; Corticotropin; UniProt P01189 155-176, looked up, fragment)", "values": [{"measurement": "capability to form a colony of undifferentiated cells", "setting": "[1]", "value": "showed to have no capability"}]}
{"compound": "adrenocorticotropic hormone (SYSMEHFRWGKPVGKKRRPVKVYPNGAEDESAEAFPLEF; Corticotropin; UniProt P01189 138-176, looked up) [ACTH, peptide hormone composed of 39 amino acid residues (ACTH (1-39))]", "values": [{"measurement": "relative potency of the colony-forming capability", "setting": "[1]", "value": "the capability at the lowest concentration among the candidate peptides"}, {"measurement": "capability to form a colony of undifferentiated cells", "setting": "[1]; listed as ACTH (1-39)", "value": "showed to have the capability"}, {"measurement": "capability to form a colony of undifferentiated cells", "setting": "[1]; listed as adrenocorticotropic hormone", "value": "formation of colonies of undifferentiated ES cells having the apparent morphology was observed"}, {"measurement": "inner cells that initiated proliferation and finally established ES cell lines", "setting": "[2]", "value": "at least two"}, {"measurement": "chimeric mice with an ES cell contribution ratio of 70% or more (hair color)", "setting": "[3]", "value": 17, "unit": "litters"}, {"measurement": "contribution of the ES cells to the germ cell line (inbreeding)", "setting": "[3]", "value": "the inbreeding showed the contribution of the ES cells to the germ cell line"}, {"measurement": "female litters among the 17 chimeric litters", "setting": "[3]", "value": 14, "unit": "litters"}, {"measurement": "litters survived three weeks or more after birth", "setting": "[3]", "value": 30, "unit": "litters"}, {"measurement": "litters produced from 100 transplanted embryos", "setting": "[3]; subcultured twice, injected into blastocyst", "value": 33, "unit": "litters"}]}
{"compound": "brain natriuretic peptide", "values": [{"measurement": "capability to form a colony of undifferentiated cells", "setting": "[1]", "value": "formation of colonies of undifferentiated ES cells having the apparent morphology was observed"}]}
{"compound": "pertussis toxin", "values": [{"measurement": "effect of ACTH on colony formation", "setting": "[1]; [6]", "value": "the effect of ACTH was inhibited"}, {"measurement": "size of the colonies of undifferentiated cells", "setting": "[1]; [6]", "value": "drastically decreased"}]}
{"compound": "pituitary adenylate cyclase activating polypeptide (HSDGIFTDSYSRYRKQMAVKKYLAAVLGKRYKQRVKNK; ends and bridges not checked; UniProt P18509 132-169, looked up)", "values": [{"measurement": "capability to form a colony of undifferentiated cells", "setting": "[1]", "value": "formation of colonies of undifferentiated ES cells having the apparent morphology was observed"}]}
